The subject of this test is CD2F1 mice, L1210 leukemia ip, survival T/C. Put plainly: NCI In Vivo Anticancer Drug Screen. Data for tumor model L1210 Leukemia (intraperitoneal) in CD2F1 (CDF1) mice. The settings on record: higher = longer survival. The gist of the method:
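Activity against a transplanted murine tumor was judged by comparing the compound group with a vehicle group. The outcome in the treated animals was divided by that in the controls.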

Where [1] appears, read: endpoint: mean survival time, dose: 100.0 mg/kg/injection, schedule: Q01DX009 (ip), vehicle: saline with Tween-80.
Setting [2] is: endpoint: mean survival time, dose: 200.0 mg/kg/injection, schedule: Q01DX009 (ip), vehicle: saline with Tween-80.
Where [3] appears, read: endpoint: mean survival time, dose: 400.0 mg/kg/injection, schedule: Q01DX009 (ip), vehicle: saline with Tween-80.
Setting [4] is: endpoint: mean survival time, dose: 100.0 mg/kg/injection, schedule: Q01DX001 (ip), vehicle: saline.
Setting [5] is: endpoint: mean survival time, dose: 200.0 mg/kg/injection, schedule: Q01DX001 (ip), vehicle: saline.
The mark [6] stands for this setting: endpoint: mean survival time, dose: 400.0 mg/kg/injection, schedule: Q01DX001 (ip), vehicle: saline.
Where [7] appears, read: endpoint: mean survival time, dose: 100.0 mg/kg/injection, schedule: Q04DX003 (ip), vehicle: saline with Tween-80.
The mark [8] stands for this setting: endpoint: mean survival time, dose: 200.0 mg/kg/injection, schedule: Q04DX003 (ip), vehicle: saline with Tween-80.
The mark [9] stands for this setting: endpoint: mean survival time, dose: 400.0 mg/kg/injection, schedule: Q04DX003 (ip), vehicle: saline with Tween-80.
Setting [10] is: endpoint: mean survival time, dose: 100.0 mg/kg/injection, schedule: Q04DX003 (ip), vehicle: saline.
[11] abbreviates: endpoint: mean survival time, dose: 25.0 mg/kg/injection, schedule: Q01DX009 (ip), vehicle: other.
Where [12] appears, read: endpoint: mean survival time, dose: 50.0 mg/kg/injection, schedule: Q01DX009 (ip), vehicle: other.
[13] abbreviates: endpoint: mean survival time, dose: 100.0 mg/kg/injection, schedule: Q01DX009 (ip), vehicle: other.
[14] abbreviates: endpoint: mean survival time, dose: 200.0 mg/kg/injection, schedule: Q01DX009 (ip), vehicle: other.

This passage reports T/C results from PubChem BioAssay AID256 (DTP/NCI, 2004).

SMILES strings stand for the structures. Where “and” joins values, the source holds several entries; their conditions need not be identical. Equal entries are not always repeated. Toxic doses and inconclusive results are not listed.

With `CCC(CC)C(O)C(C)C(C)O` (stereo not given), the T/C was 91 % of control under setting [1], 91 % of control under setting [2] and 91 % of control under setting [3].

For `OC1c2ccccc2C2CC12` (stereo not given), the T/C by setting is: (endpoint: mean survival time, dose: 100.0 mg/kg/injection, schedule: Q01DX001 (ip), vehicle: saline with Tween-80) 105 % of control; (endpoint: mean survival time, dose: 200.0 mg/kg/injection, schedule: Q01DX001 (ip), vehicle: saline with Tween-80) 102 % of control; (endpoint: mean survival time, dose: 400.0 mg/kg/injection, schedule: Q01DX001 (ip), vehicle: saline with Tween-80) 105 % of control.

As to `COc1ccc(C(C(N)=O)N2CCCC2)cc1` (stereo not given), the T/C is 89 % of control under setting [1] and 90 % of control under setting [2].

Consider `CCOC(=O)C(C)C(C)=O` (stereo not given), for which the T/C was 104 % of control under setting [4], 98 % of control under setting [5] and 101 % of control under setting [6].

Turning to `CC(=O)COc1ccc(C)cc1`, the T/C was 105 % of control under setting [7], 96 % of control under setting [8] and 98 % of control under setting [9].

On to `CN(C)C(=O)C(=O)C1C=Cc2ccccc21` (stereo not given), for which the T/C under setting [1] is 98 % of control, the T/C under setting [2] was 103 % of control and the T/C under setting [3] is 93 % of control.

Take `COn1c(-c2ccccc2)nc2c1C(=O)N(C)CN2C`: the T/C runs as follows: (endpoint: mean survival time, dose: 12.5 mg/kg/injection, schedule: Q01DX005 (ip), vehicle: other) 96 % of control; (endpoint: mean survival time, dose: 25.0 mg/kg/injection, schedule: Q01DX005 (ip), vehicle: other) 96 % of control; (endpoint: mean survival time, dose: 50.0 mg/kg/injection, schedule: Q01DX005 (ip), vehicle: other) 96 % of control; (endpoint: mean survival time, dose: 100.0 mg/kg/injection, schedule: Q01DX005 (ip), vehicle: other) 95 % of control; (endpoint: mean survival time, dose: 200.0 mg/kg/injection, schedule: Q01DX005 (ip), vehicle: other) 96 % of control.

As for `CC(C)OP(=O)(OCCCO)C(Cl)Cl` (stereo not given), the T/C is 100 % of control under setting [4], 102 % of control under setting [5] and 102 % of control under setting [6].

Regarding `Nc1nc(Cl)cc(-c2ccccc2)n1`, the T/C is, setting by setting: under setting [7], 102 % of control; under setting [8], 90 % of control; under setting [9], 90 % of control.

For `O=[N+]([O-])O.[Er]`, the T/C by setting is: (endpoint: mean survival time, dose: 25.0 mg/kg/injection, schedule: Q04DX003 (ip), vehicle: saline) 96 % of control; (endpoint: mean survival time, dose: 50.0 mg/kg/injection, schedule: Q04DX003 (ip), vehicle: saline) 87 % of control; under setting [10], 87 % of control.

Regarding `CC1CC(=O)C(CCC#N)=C(O)C1` (stereo not given), the T/C under setting [7] is 94 % of control, the T/C under setting [8] was 91 % of control and the T/C under setting [9] was 91 % of control.

In the case of `CC(C)(C)OC(=O)NC(C(=O)O)C1=CCC=CC1` (stereo not given), the T/C by setting is: under setting [11], 100 % of control; under setting [12], 96 % of control; (endpoint: mean survival time, dose: 50.0 mg/kg/injection, schedule: Q04DX002 (ip), vehicle: other) 101 % of control; (endpoint: mean survival time, dose: 50.0 mg/kg/injection, schedule: Q04DX003 (ip), vehicle: other) 103 % of control; (endpoint: mean survival time, dose: 100.0 mg/kg/injection, schedule: Q01DX001 (ip), vehicle: other) 106 % of control; under setting [13], 91 % of control. Besides, the T/C (endpoint: mean survival time, dose: 100.0 mg/kg/injection, schedule: Q04DX002 (ip), vehicle: other) is 101 % of control; the T/C (endpoint: mean survival time, dose: 100.0 mg/kg/injection, schedule: Q04DX003 (ip), vehicle: other) was 106 % of control; the T/C (endpoint: mean survival time, dose: 200.0 mg/kg/injection, schedule: Q01DX001 (ip), vehicle: other) is 99 % of control; the T/C under setting [14] is 91 % of control; the T/C (endpoint: mean survival time, dose: 200.0 mg/kg/injection, schedule: Q04DX002 (ip), vehicle: other) is 94 % of control; the T/C (endpoint: mean survival time, dose: 200.0 mg/kg/injection, schedule: Q04DX003 (ip), vehicle: other) was 97 % of control. The T/C was 99 % of control (endpoint: mean survival time, dose: 400.0 mg/kg/injection, schedule: Q01DX001 (ip), vehicle: other); 101 % of control (endpoint: mean survival time, dose: 400.0 mg/kg/injection, schedule: Q04DX002 (ip), vehicle: other); 97 % of control (endpoint: mean survival time, dose: 400.0 mg/kg/injection, schedule: Q04DX003 (ip), vehicle: other); 96 % of control (endpoint: mean survival time, dose: 600.0 mg/kg/injection, schedule: Q01DX001 (ip), vehicle: other).

For the molecule `CCCCCCC(O)/C=C/c1ccc(Cl)cc1` (stereo not given), the T/C reads like this: under setting [7], 110 % of control; under setting [8], 102 % of control; under setting [9], 111 % of control.

With `CC/C(I)=C(/CC)S(=O)(=O)c1ccc(C)cc1`, the T/C under setting [10] is 95 % of control; the T/C (endpoint: mean survival time, dose: 200.0 mg/kg/injection, schedule: Q04DX003 (ip), vehicle: saline) was 103 % of control; the T/C (endpoint: mean survival time, dose: 400.0 mg/kg/injection, schedule: Q04DX003 (ip), vehicle: saline) was 94 % of control.

On to `N#CC(C#N)=Cc1ccc2c(c1)CCC2`, for which the T/C reads like this: (endpoint: mean survival time, dose: 25.0 mg/kg/injection, schedule: Q01DX009 (ip), vehicle: saline with Tween-80) 93 % of control; (endpoint: mean survival time, dose: 25.0 mg/kg/injection, schedule: Q04DX003 (ip), vehicle: saline with Tween-80) 100 % of control; (endpoint: mean survival time, dose: 50.0 mg/kg/injection, schedule: Q01DX009 (ip), vehicle: saline with Tween-80) 96 % of control; (endpoint: mean survival time, dose: 50.0 mg/kg/injection, schedule: Q04DX003 (ip), vehicle: saline with Tween-80) 90 % of control; under setting [1], 94 % of control; under setting [7], 95 % of control.

For the molecule `CCOC(=O)C(N)C[S][Sn]([CH3])([CH3])[Cl]` (stereo not given), the T/C is, setting by setting: (endpoint: median survival time, dose: 3.12 mg/kg/injection, schedule: Q01DX009 (ip), vehicle: saline) 98 % of control; (endpoint: median survival time, dose: 6.25 mg/kg/injection, schedule: Q01DX009 (ip), vehicle: saline) 97 % of control; (endpoint: median survival time, dose: 12.5 mg/kg/injection, schedule: Q01DX009 (ip), vehicle: saline) 100 % of control; (endpoint: median survival time, dose: 25.0 mg/kg/injection, schedule: Q01DX009 (ip), vehicle: saline) 89 % of control.

Consider `COC(=O)C(CC(C)C)NC(=O)C(CSC(c1ccccc1)(c1ccccc1)c1ccccc1)NC(c1ccccc1)(c1ccccc1)c1ccccc1` (stereo not given), for which the T/C was 97 % of control (endpoint: mean survival time, dose: 50.0 mg/kg/injection, schedule: Q01DX009 (ip), vehicle: saline); 97 % of control (endpoint: mean survival time, dose: 100.0 mg/kg/injection, schedule: Q01DX009 (ip), vehicle: saline); 92 % of control (endpoint: mean survival time, dose: 200.0 mg/kg/injection, schedule: Q01DX009 (ip), vehicle: saline); 97 % of control (endpoint: mean survival time, dose: 400.0 mg/kg/injection, schedule: Q01DX009 (ip), vehicle: saline).

For the molecule `Cc1ncc(COP(=O)(O)O)c(C=NC(CCCCN)C(=O)O)c1O.O.[Cu]` (stereo not given), the T/C was 98 % of control (endpoint: mean survival time, dose: 12.5 mg/kg/injection, schedule: Q01DX001 (ip), vehicle: saline with Tween-80); 92 % of control (endpoint: mean survival time, dose: 25.0 mg/kg/injection, schedule: Q01DX001 (ip), vehicle: saline with Tween-80); 98 % of control (endpoint: mean survival time, dose: 50.0 mg/kg/injection, schedule: Q01DX001 (ip), vehicle: saline with Tween-80).

Take `O=C(N/N=C/c1cc2c(cc1[N+](=O)[O-])OCO2)c1ccccc1`: the T/C (endpoint: mean survival time, dose: 12.5 mg/kg/injection, schedule: Q01DX009 (ip), vehicle: other) is 100 % of control; the T/C under setting [11] was 104 % of control; the T/C under setting [12] was 94 % of control; the T/C under setting [13] was 96 % of control; the T/C under setting [14] was 94 % of control.

Consider `NC(=O)N1c2c(nc(N)[nH]c2=O)NCC1CNc1ccc(C(=O)NC(CCC(=O)O)C(=O)O)cc1` (stereo not given), for which the T/C reads like this: (endpoint: mean survival time, dose: 100.0 mg/kg/injection, schedule: Q01DX001 (ip), vehicle: sodium bicarbonate) 102 % of control; (endpoint: mean survival time, dose: 200.0 mg/kg/injection, schedule: Q01DX001 (ip), vehicle: sodium bicarbonate) 97 % of control; (endpoint: mean survival time, dose: 400.0 mg/kg/injection, schedule: Q01DX001 (ip), vehicle: sodium bicarbonate) 96 % of control.

Regarding `O=C(Nc1ccccc1)c1c(O)[nH]c(=O)[nH]c1=O`, the T/C is 112 % of control [middle of 5 runs] (endpoint: median survival time, dose: 25.0 mg/kg/injection, schedule: Q01DX009 (ip), vehicle: saline with Tween-80); 124 % of control and 112 % of control and 108 % of control (endpoint: median survival time, dose: 50.0 mg/kg/injection, schedule: Q01DX009 (ip), vehicle: saline with Tween-80); 166 % of control and 179 % of control and 211 % of control (endpoint: median survival time, dose: 200.0 mg/kg/injection, schedule: Q01DX009 (ip), vehicle: saline with Tween-80); 233 % of control (endpoint: median survival time, dose: 400.0 mg/kg/injection, schedule: Q01DX009 (ip), vehicle: saline with Tween-80).
